Measurements published in patent US20220160712A1, “METHODS OF TREATING RHEUMATOID ARTHRITIS AND FOR PREDICTING THE RESPONSE TO METHOTREXATE” (CHAN ZUCKERBERG BIOHUB, INC., priority 2020, published 2022).

Columns and labels:
[1] = tested on: human gut bacterial isolates; test: In vitro bacterial growth studies (MIC, growth curves) on a panel of 45 isolates; type: cell-based
From the text: 42/45 of the tested isolates are commonly found in the human gut microbiota, with the exceptions of Bacteroides acidifaciens (found in mice), Delftia acidovorans (found in soil), and Bacillus subtilis 168 (found in soil). Each of these strains was obtained from the Deutsche Sammlung von Mikroorganismen and Zellkulturen (DSMZ) culture collection. A single colony of each isolate was subcultured in Bacto Brain Heart Infusion (BD Biosciences, 37 g/L) supplemented with L-cysteine-HCl (0.05%, w/v), menadione (1 μg/mL), and hemin (5 μg/mL) (referred to hereafter as BHI+) for 48 hours in an anaerobic chamber (Coy Laboratory Products) at 37° C. with an atmosphere composed of 2-3% H2, 20% CO2, and the balance N2. This subculture was diluted down to an OD600 of 0.08-0.1, which was then further diluted 100-fold, and then used to inoculate a microtiter plate with 2-fold serial dilutions of MTX concentrations ranging from 0-900 μg/ml. Plates were incubated at 37° C. with shaking in an Eon Microplate Spectrophotometer (BioTek Instruments, Inc) over a 48 to 72-hour period in the anaerobic chamber. Growth was monitored every 15 minutes at OD600 and corrected for background (no growth control). Data were exported using the Gen5 (v 2.0) software. […] As with any in vitro system, the growth of cells may be dependent on the growth medium used, and for these studies, a rich medium (BHI+) was used.
Growth parameters (carrying capacity, time to mid-exponential and growth rate) were calculated in R using GrowthCurveR (Sprouffske, K., and Wagner, A. (2016), BMC Bioinformatics 17, 1726) (v0.2.1). Curves that could not be fit by the software (i.e., generated a warning/error message) were excluded from further analysis. […] Determination of dose-dependency was done by fitting a linear regression with methotrexate concentration as the independent variable and the estimated growth parameter as the dependent variable using lm from the stats package (v3.5.1). For rescue studies, as above, growth parameters (carrying capacity, time to mid-exponential, growth rate, and area under the curve) were calculated in R using GrowthCurveR (Sprouffske and Wagner, 2016) (v0.2.1). Four isolates were evaluated with varying sensitivity to MTX (B. thetaiotaomicron, B. vulgatus, C. innocuum and C. symbiosum). C. asparagiforme was excluded because rescue of growth would be difficult to identify in this MTX resistant strain (FIG. 2D). Growth curves at 9 concentrations of MTX tested against 7 concentrations of folic acid were measured. Determination of dose-dependency at each tested concentration of MTX was done by fitting a linear regression with folic acid or leucovorin concentration as the independent variable and the estimated growth parameter as the dependent variable using lm from the stats package (v3.5.1). […] A p-value cutoff of p<0.05 was used to identify effects that were dose-dependent based on the linear regression.

[2] = tested on: B. theta and C. asparagiforme; test: Untargeted metabolomics of in vitro cultures; type: cell-based, Bacteroides thetaiotaomicron; Clostridium asparagiforme
Description: As described in the in vitro bacterial growth studies, 48-hour overnight cultures were grown in an anaerobic chamber in liquid BHI+for the following isolates: Bacteroidetes thetaiotaomicron and Clostridium asparagiforme. Each subculture was diluted down to an OD600 of 0.08-0.1, which was then further diluted 100-fold, and then used to inoculate a 96-well 2-ml deep well plate with 100 μg/ml MTX (n=6 replicates per isolate) (Sigma, Cat #M9929) or DMSO (n=2 replicates per isolate). After 24 hours, aliquots were removed, centrifuged on a tabletop centrifuge at 4° C. for 5 minutes at ˜2000 rcf, and supernatant was prepared for extraction and untargeted LC-MS as described.
Extraction was done in 96 well plates. In brief, 60 μL of the supernatant from the 96 well culture plate was added to 120 μL of pre-cooled methanol/acetonitrile (1:1, v/v) in a non-sterile 96 well plate. The samples were then incubated at −20° C. for 1 hour. After incubation, samples were mixed at 4° C. at 650 rpm using small block tube shaker. The plates were then centrifuged at 3000 rpm for 10 minutes. After centrifugation, using multi-channel pipette, 80 μL of supernatant from each well was transferred to non-sterile 96 well polypropylene plate and then sealed with pre-slit silicone mat. A 1:1:1 mix of LC-MS grade H2O, LC-MS grade acetonitrile and LC-MS grade methanol was used as blank.
Samples (5 μl) were separated by hydrophilic interaction chromatography HPLC using a Vanquish UHPLC system (Thermo Fisher Scientific, Waltham, MA) with a Waters (Milford, MA) Acquity UPLC BEH Amide Column (2.1×100 mm×1.7 μm particle size) maintained at 65° C. and a 17 minute gradient, at a flow rate of 400 μl/min. […]
The raw data were converted into mzML format using ProteoWizard v3.0. Converted HILIC files were then analyzed using MS-DIAL v4.16 for deconvolution, peak detection, alignment, and identification (Parameters file can be provided upon request). […]

[3] = MTX 100 μg/ml, 24 hours, padj<0.01, two-factor ANOVA with BH correction

CN(Cc1cnc2nc(N)nc(N)c2n1)c1ccc(C(=O)N[C@@H](CCC(=O)O)C(=O)O)cc1 [MTX, methotrexate]
percentage of tested isolates inhibited at the estimated concentration in the proximal GI tract ([1]; 22-220 μM or 10-100 μg/ml MTX, 5-15 of 45 isolates): 11-33%
Minimal inhibitory concentration (MIC) ([1]; 45 isolates, MTX 1.7-900 μg/ml, 2-2,000 μM, 48 hours, BHI+, anaerobic): ranged across the full gradient
number of isolates resistant to the maximum concentration tested ([1]; 45 isolates, maximum 900 μg/ml, 48 hours): 11
sensitivity of Bacteroidetes relative to the other phyla ([1]; MICs of isolates spanning 4 major phyla (FIG. 2B)): tended to be sensitive
isolates with full growth inhibition or alterations in growth curve parameters ([1]; MTX concentrations predicted to be found in the human gut, 36/45 isolates): 80%
percentage of tested isolates with at least one growth parameter affected in a dose-dependent manner ([1]; sub-MIC concentrations, subset of strains with growth curves): 78%
levels of AMP, adenine, hypoxanthine and guanine relative to vehicle control ([2]; C. asparagiforme, 24 hours of treatment, AMP decreased, the rest increased, Wilcoxon rank sum): these differences were not statistically significant
number of metabolic features that changed similarly in the two isolates [2, 3]: 418
number of metabolic features that differed by species [2, 3]: 220
